Source: PubChem BioAssay AID1259407 (Chemical Carcinogenesis Research Information System (CCRIS), 2018)
The source made the active and inactive calls. How the calls were made is not given here.

Test system: CCRIS mutagenicity, Ames/micronucleus/aberration tests
Test: CCRIS mutagenicity studies
[1] = Test System: AMES SALMONELLA TYPHIMURIUM, Strain/Indicator: TA98, Metabolic Activation: NONE, Method: STANDARD PLATE
[2] = Test System: AMES SALMONELLA TYPHIMURIUM, Strain/Indicator: TA98, Metabolic Activation: RAT, LIVER, S-9, AROCLOR 1254, Method: STANDARD PLATE
[3] = Test System: AMES SALMONELLA TYPHIMURIUM, Strain/Indicator: TA100, Metabolic Activation: NONE, Method: STANDARD PLATE
[4] = Test System: AMES SALMONELLA TYPHIMURIUM, Strain/Indicator: TA100, Metabolic Activation: RAT, LIVER, S-9, AROCLOR 1254, Method: STANDARD PLATE

SMILES: O=C1NC(=O)C(c2ccccc2)(c2ccc(O)cc2)N1 (stereo not given)
- mutagenic call (Test System: AMES SALMONELLA TYPHIMURIUM, Strain/Indicator: TA97, Metabolic Activation: NONE, Method: STANDARD PLATE): inactive; negative
- mutagenic call (Test System: AMES SALMONELLA TYPHIMURIUM, Strain/Indicator: TA97, Metabolic Activation: RAT, LIVER, S-9, 3-METHYLCHOLANTHRENE, Method: PREINCUBATION (10, 20 OR 30 MIN)): inactive; negative
- mutagenic call (Test System: AMES SALMONELLA TYPHIMURIUM, Strain/Indicator: TA97, Metabolic Activation: RAT, LIVER, S-9, 3-METHYLCHOLANTHRENE, Method: STANDARD PLATE): inactive; negative
- mutagenic call (Test System: AMES SALMONELLA TYPHIMURIUM, Strain/Indicator: TA97, Metabolic Activation: RAT, LIVER, S-9, AROCLOR 1254, Method: PREINCUBATION (10, 20 OR 30 MIN)): inactive; negative
- mutagenic call (Test System: AMES SALMONELLA TYPHIMURIUM, Strain/Indicator: TA97, Metabolic Activation: RAT, LIVER, S-9, AROCLOR 1254, Method: STANDARD PLATE): inactive; negative
- mutagenic call (Test System: AMES SALMONELLA TYPHIMURIUM, Strain/Indicator: TA97, Metabolic Activation: RAT, LIVER, S-9, PHENOBARBITONE, Method: PREINCUBATION (10, 20 OR 30 MIN)): inactive; negative
- mutagenic call (Test System: AMES SALMONELLA TYPHIMURIUM, Strain/Indicator: TA97, Metabolic Activation: RAT, LIVER, S-9, PHENOBARBITONE, Method: STANDARD PLATE): inactive; negative
- mutagenic call [1]: inactive; negative
- mutagenic call (Test System: AMES SALMONELLA TYPHIMURIUM, Strain/Indicator: TA98, Metabolic Activation: RAT, LIVER, S-9, 3-METHYLCHOLANTHRENE, Method: STANDARD PLATE): inactive; negative
- mutagenic call [2]: inactive; negative
- mutagenic call (Test System: AMES SALMONELLA TYPHIMURIUM, Strain/Indicator: TA98, Metabolic Activation: RAT, LIVER, S-9, PHENOBARBITONE, Method: STANDARD PLATE): inactive; negative
- mutagenic call [3]: inactive; negative
- mutagenic call (Test System: AMES SALMONELLA TYPHIMURIUM, Strain/Indicator: TA100, Metabolic Activation: RAT, LIVER, S-9, 3-METHYLCHOLANTHRENE, Method: STANDARD PLATE): inactive; negative
- mutagenic call [4]: inactive; negative
- mutagenic call (Test System: AMES SALMONELLA TYPHIMURIUM, Strain/Indicator: TA100, Metabolic Activation: RAT, LIVER, S-9, PHENOBARBITONE, Method: STANDARD PLATE): inactive; negative
- mutagenic call (Test System: AMES SALMONELLA TYPHIMURIUM, Strain/Indicator: TA1530, Metabolic Activation: NONE, Method: STANDARD PLATE): inactive; negative
- mutagenic call (Test System: AMES SALMONELLA TYPHIMURIUM, Strain/Indicator: TA1530, Metabolic Activation: RAT, LIVER, S-9, 3-METHYLCHOLANTHRENE, Method: STANDARD PLATE): inactive; negative
- mutagenic call (Test System: AMES SALMONELLA TYPHIMURIUM, Strain/Indicator: TA1530, Metabolic Activation: RAT, LIVER, S-9, AROCLOR 1254, Method: STANDARD PLATE): inactive; negative
- mutagenic call (Test System: AMES SALMONELLA TYPHIMURIUM, Strain/Indicator: TA1530, Metabolic Activation: RAT, LIVER, S-9, PHENOBARBITONE, Method: STANDARD PLATE): inactive; negative
- mutagenic call (Test System: AMES SALMONELLA TYPHIMURIUM, Strain/Indicator: TA1537, Metabolic Activation: NONE, Method: STANDARD PLATE): inactive; negative
- mutagenic call (Test System: AMES SALMONELLA TYPHIMURIUM, Strain/Indicator: TA1537, Metabolic Activation: RAT, LIVER, S-9, 3-METHYLCHOLANTHRENE, Method: STANDARD PLATE): inactive; negative
- mutagenic call (Test System: AMES SALMONELLA TYPHIMURIUM, Strain/Indicator: TA1537, Metabolic Activation: RAT, LIVER, S-9, AROCLOR 1254, Method: STANDARD PLATE): inactive; negative
- mutagenic call (Test System: AMES SALMONELLA TYPHIMURIUM, Strain/Indicator: TA1537, Metabolic Activation: RAT, LIVER, S-9, PHENOBARBITONE, Method: STANDARD PLATE): inactive; negative
- mutagenic call (Test System: AMES SALMONELLA TYPHIMURIUM, Strain/Indicator: TA1538, Metabolic Activation: NONE, Method: STANDARD PLATE): inactive; negative
- mutagenic call (Test System: AMES SALMONELLA TYPHIMURIUM, Strain/Indicator: TA1538, Metabolic Activation: RAT, LIVER, S-9, 3-METHYLCHOLANTHRENE, Method: STANDARD PLATE): inactive; negative
- mutagenic call (Test System: AMES SALMONELLA TYPHIMURIUM, Strain/Indicator: TA1538, Metabolic Activation: RAT, LIVER, S-9, AROCLOR 1254, Method: STANDARD PLATE): inactive; negative
- mutagenic call (Test System: AMES SALMONELLA TYPHIMURIUM, Strain/Indicator: TA1538, Metabolic Activation: RAT, LIVER, S-9, PHENOBARBITONE, Method: STANDARD PLATE): inactive; negative

SMILES: CCCCO[C@@H](CC)CO
- mutagenic call (Test System: AMES SALMONELLA TYPHIMURIUM, Strain/Indicator: TA98, Metabolic Activation: NONE, Method: PREINCUBATION): inactive; negative
- mutagenic call (Test System: AMES SALMONELLA TYPHIMURIUM, Strain/Indicator: TA98, Metabolic Activation: RAT LIVER S-9, PHENOBARBITAL AND BETA-NAPHTHOFLAVONE, Method: PREINCUBATION): inactive; negative
- mutagenic call (Test System: AMES SALMONELLA TYPHIMURIUM, Strain/Indicator: TA100, Metabolic Activation: NONE, Method: PREINCUBATION): inactive; negative
- mutagenic call (Test System: AMES SALMONELLA TYPHIMURIUM, Strain/Indicator: TA100, Metabolic Activation: RAT LIVER S-9, PHENOBARBITAL AND BETA-NAPHTHOFLAVONE, Method: PREINCUBATION): inactive; negative
- mutagenic call (Test System: AMES SALMONELLA TYPHIMURIUM, Strain/Indicator: TA1535, Metabolic Activation: NONE, Method: PREINCUBATION): inactive; negative
- mutagenic call (Test System: AMES SALMONELLA TYPHIMURIUM, Strain/Indicator: TA1535, Metabolic Activation: RAT LIVER S-9, PHENOBARBITAL AND BETA-NAPHTHOFLAVONE, Method: PREINCUBATION): inactive; negative
- mutagenic call (Test System: AMES SALMONELLA TYPHIMURIUM, Strain/Indicator: TA1537, Metabolic Activation: NONE, Method: PREINCUBATION): inactive; negative
- mutagenic call (Test System: AMES SALMONELLA TYPHIMURIUM, Strain/Indicator: TA1537, Metabolic Activation: RAT LIVER S-9, PHENOBARBITAL AND BETA-NAPHTHOFLAVONE, Method: PREINCUBATION): inactive; negative
- mutagenic call (Test System: E.COLI, Strain/Indicator: WP2UVRA/PKM101, Metabolic Activation: NONE, Method: PREINCUBATION): inactive; negative
- mutagenic call (Test System: E.COLI, Strain/Indicator: WP2UVRA/PKM101, Metabolic Activation: RAT LIVER S-9, PHENOBARBITAL AND BETA-NAPHTHOFLAVONE, Method: PREINCUBATION): inactive; negative

SMILES: N#CC(Cl)Br (stereo not given)
- mutagenic call [1]: inactive; negative
- mutagenic call [2]: inactive; negative
- mutagenic call (Test System: AMES SALMONELLA TYPHIMURIUM, Strain/Indicator: TA100, Metabolic Activation: NONE, Method: FLUCTUATION TEST): active; positive
- mutagenic call [3]: inactive; negative
- mutagenic call (Test System: AMES SALMONELLA TYPHIMURIUM, Strain/Indicator: TA100, Metabolic Activation: RAT, LIVER, S-9, AROCLOR 1254, Method: FLUCTUATION TEST): inactive; negative
- mutagenic call [4]: active; positive
- mutagenic call (Test System: AMES SALMONELLA TYPHIMURIUM, Strain/Indicator: TA1535, Metabolic Activation: NONE, Method: STANDARD PLATE): active; positive
- mutagenic call (Test System: AMES SALMONELLA TYPHIMURIUM, Strain/Indicator: TA1535, Metabolic Activation: RAT, LIVER, S-9, AROCLOR 1254, Method: STANDARD PLATE): active; positive

SMILES: CC(=O)OCc1ccccc1N=Nc1ccc(N(C)C)cc1
- mutagenic call (Test System: AMES SALMONELLA TYPHIMURIUM, Strain/Indicator: TA98, Metabolic Activation: RAT, LIVER, S-9, POLYCHLORINATED BIPHENYLS, Method: PREINCUBATION): active; positive
- mutagenic call (Test System: AMES SALMONELLA TYPHIMURIUM, Strain/Indicator: TA100, Metabolic Activation: RAT, LIVER, S-9, POLYCHLORINATED BIPHENYLS, Method: PREINCUBATION): active; positive

SMILES: O=CN(O)c1ccc(F)cc1
- mutagenic call [1]: inactive; negative
- mutagenic call [2]: active; positive
- mutagenic call [3]: inactive; negative
- mutagenic call [4]: active; positive

SMILES: C#CC(OC(=O)C1C(C=C(C)C)C1(C)C)/C(C)=C/CC (stereo not given)
- mutagenic call (Test System: AMES SALMONELLA TYPHIMURIUM, Strain/Indicator: TA98, Metabolic Activation: NONE, Method: MICROSUSPENSION): inactive; negative
- mutagenic call (Test System: AMES SALMONELLA TYPHIMURIUM, Strain/Indicator: TA98, Metabolic Activation: S-9, Method: MICROSUSPENSION): inactive; negative
- mutagenic call (Test System: AMES SALMONELLA TYPHIMURIUM, Strain/Indicator: TA100, Metabolic Activation: NONE, Method: MICROSUSPENSION): inactive; negative
- mutagenic call (Test System: AMES SALMONELLA TYPHIMURIUM, Strain/Indicator: TA100, Metabolic Activation: S-9, Method: MICROSUSPENSION): inactive; negative
